Test results published in paper PMC8424644, “Thermodynamic Stability and Speciation of Ga(III) and Zr(IV) Complexes with High-Denticity Hydroxamate Chelators” (Inorganic Chemistry, 2021).
Where two headings read alike, the source gives them in different places.

How the values were obtained:
[1] = design: method as in PMID 31940188; conditions: calculations by Holland; cited from earlier work
[2] = design: method as in ref 43 (DFOB), 38 (DFOE), 11 (DOTA), 54 (NOTA), 55 (H2hox), 56 (PrP9), 57 (HBED); conditions: (re)calculated from constants of original publications, pH 7.4, cL = 10 μM, cGa(III) = 1 μM; ref 43 (DFOB), 38 (DFOE), 11 (DOTA), 54 (NOTA), 55 (H2hox), 56 (PrP9), 57 (HBED); cited from earlier work
[3] = design: method as in ref 24 (DFOB), 2 (THPN), 25,58 (3,4,3-LI-HOPO), 25,59 (DTPA); conditions: (re)calculated from constants of original publications, pH 7.4, cL = 10 μM, cZr(IV) = 1 μM; ref 24 (DFOB), 2 (THPN), 25,58 (3,4,3-LI-HOPO), 25,59 (DTPA); cited from earlier work
[4] = cited from earlier work; for pKa attributed to the deprotonation of a water molecule in the Zr(IV) complex: ref 24 (DFOB), 27 (EDTA)
[5] = pGa calculation (ligand sequestering ability); assay type: physicochemical; conditions: pGa = −log[Ga(III)free], pH 7.4, cL = 10 μM, cGa(III) = 1 μM
Excerpt: (§1) Despite a large variety of PET chelators synthesized and tested in order to provide strong coordination of Ga(III) and Zr(IV) in vivo, until now it is has been hard to avoid the release of these metal ions in the body. Here we report two new Ga(III) and Zr(IV) hydroxamate chelators, designed to achieve an efficient sequestering of these metal ions but also to understand how the cyclization and the introduction of an additional hydroxamate group influences the stability of Zr(IV) complexes. Therefore, it is important to evaluate and compare the Ga(III)- and Zr(IV)-sequestering abilities of H3L1 and H4L2 with those of other chelators. However, the direct comparison of the stability constants of metal complexes is not straightforward, and other tools taking into account all the physicochemical properties of the ligands, i.e. their denticity, coordination modes, and acid–base properties, should be used.[52] In order to reliably compare the chelating abilities of H3L1 and H4L2 toward Ga(III) and Zr(IV) ions, the pM values were calculated. pFe was originally introduced by Raymond for the comparison of iron-siderophore systems;[53] pGa = −log[Ga(III)free] and pZr = −log[Zr(IV)free] were calculated at pH 7.4 with cL = 10 μM and cGa(III)/Zr(IV) = 1 μM (Table 2).

[6] = pZr calculation (ligand sequestering ability); assay type: physicochemical; conditions: pZr = −log[Zr(IV)free], pH 7.4, cL = 10 μM, cZr(IV) = 1 μM
Excerpt: as §1

[7] = cited from earlier work
[8] = taken from the literature, cited from earlier work
[9] = pFe calculation (ligand sequestering ability); assay type: physicochemical; conditions: pH=7.4, cL=10 μM, metal 1 μM
Excerpt: Despite a large variety of PET chelators synthesized and tested in order to provide strong coordination of Ga(III) and Zr(IV) in vivo, until now it is has been hard to avoid the release of these metal ions in the body. Here we report two new Ga(III) and Zr(IV) hydroxamate chelators, designed to achieve an efficient sequestering of these metal ions but also to understand how the cyclization and the introduction of an additional hydroxamate group influences the stability of Zr(IV) complexes. Therefore, it is important to evaluate and compare the Ga(III)- and Zr(IV)-sequestering abilities of […] and […] with those of other chelators. […] page 15: 100 100 [ZrL4]+ [ZrL3]+ [ZrL4H ] -1 80 [ZrL3H ] 80 2+ -1 [ZrHL4] […] Experimental section. Ligands' sequestering ability Table S3. pFe values with various synthetic and biological chelators a Ligand pFe Chelating groups and ligands geometry […] 24.3 3 hydroxamate groups in a cyclic arrangement […] 23.3 4 hydroxamate groups in a linear arrangement […] 26.9 3 hydroxamate groups in a cyclic arrangement […] 23.61 3 hydroxamate groups in a linear arrangement […] DFOE 27.73 3 hydroxamate groups in a cyclic arrangement […] protonation and stability constants given in original publications; the hydrolysis constants of Fe(III) ions were taken from the literature14 and are given in the experimental section 15 (also on this page, place not known: […]

[10] = Fe(III)-L + Zr(IV)-NTA metal–metal competition UV–vis titrations; assay type: physicochemical; conditions: Fe(III)-DFOB + Zr(IV)-NTA competition
[11] = design: method as in PMID 11666621; conditions: acidic range; cited from earlier work
[12] = acidic range; cited from earlier work
[13] = taken from the literature, ref 38 (H3L3), 35 (H3L4), 36,38 (DFOE)

SMILES: O=C1CCN(O)C(=O)CCCNC(=O)CCN(O)C(=O)CCCNC(=O)CCN(O)C(=O)CCCNC(=O)CCN(O)C(=O)CCCN1 [CTH36]
- log β [Zr(L)] predicted from computational calculations [1]: 52.84

SMILES: O=C(O)CN(CCN(CC(=O)O)Cc1ccccc1O)Cc1ccccc1O [HBED]
- pGa [2]: 28.0[57]

SMILES: O=C(NCCCN(CCCCN(CCCNC(=O)c1cccc(=O)n1O)C(=O)c1cccc(=O)n1O)C(=O)c1cccc(=O)n1O)c1cccc(=O)n1O [3,4,3-LI-HOPO]
- pZr [3]: 44.0[25],[58]

SMILES: O=C(O)CN(CCN(CC(=O)O)CC(=O)O)CC(=O)O [EDTA, ethylenediaminetetraacetic acid]
- pKa attributed to the deprotonation of a water molecule in the Zr(IV) complex [4]: 6.2

SMILES: CN(O)C(=O)CCC(=O)NCCOCC(C)(COCCNC(=O)CCC(=O)N(C)O)COCCNC(=O)CCC(=O)N(C)O [H3L4]
- pGa [5]: 21.9
- pZr [6]: 32.6
- log K LH2 (ligand protonation; log K2) [7, 13]: 8.97
- log K LH3 (ligand protonation; log K3) [7, 13]: 8.26
- log K LH (ligand protonation; log K1) [7, 13]: 9.50
- log β LH2 (ligand protonation) [7, 13]: 18.47
- log β LH3 (ligand protonation) [7, 13]: 26.73
- log β LH (ligand protonation) [7, 13]: 9.50
- log β [FeHL] [8]: 29.82
- log β [FeL] ([8]; ref 38 (H3L3), 35 (H3L4), 36,38 (DFOE)): 27.34

SMILES: O=C1CCCCCN(O)C(=O)CCNC(=O)CCCCCN(O)C(=O)CCNC(=O)CCCCCN(O)C(=O)CCN1 [H3L3]
- pGa [5]: 25.4
- pZr [6]: 31.5
- pFe [9]: 26.9
- log K LH (ligand protonation; log K1) [7, 13]: 9.89
- log β LH (ligand protonation) [7, 13]: 9.89

SMILES: CC(=O)N(O)CCCCCNC(=O)CCC(=O)N(O)CCCCCNC(=O)CCC(=O)N(O)CCCCCN [DFOB]
- log β [ZrHDFOB] ([10]; spectra collected after 1h incubation): 45.9
- log β [ZrHDFOB] ([10]; spectra collected after 24h incubation): 46.1(2)
- pGa [2]: 21.6[43]
- pZr [3]: 32.2[24]
- log β [Zr(L)] predicted from computational calculations [1]: 41.20
- pKa of the Th(IV) complex [11]: 1.9
- log Kamine (protonation constant of the amino group) [7]: 10.97
- pKa1 (protonation constant of the Ga(III) complex) [12]: 0.78
- pKa2 (protonation constant of the Ga(III) complex) [12]: 1.10
- log β [ZrH(DFOB)OH] [4]: 40.04
- log β [ZrHDFOB] ([4]; different ionic strength): 47.7
- pKa attributed to the deprotonation of a water molecule in the Zr(IV) complex [4]: 6.36

SMILES: O=C(O)CCP(=O)(O)CN1CCN(CP(=O)(O)CCC(=O)O)CCN(CP(=O)(O)CCC(=O)O)CC1 [PrP9]
- pGa [2]: 23.1[56]

SMILES: O=C(O)CN1CCN(CC(=O)O)CCN(CC(=O)O)CCN(CC(=O)O)CC1 [DOTA, 1,4,7,10-tetraazacyclododecane-1,4,7,10-tetraacetic acid]
- pGa [2]: 20.5[11]

SMILES: O=C1CCC(=O)N(O)CCCCCNC(=O)CCC(=O)N(O)CCCCCNC(=O)CCC(=O)N(O)CCCCCN1 [DFOE, desferrioxamine E, reference compound]
- pZr [6]: 31.0
- pGa [2]: 25.2[38]
- log K LH2 (ligand protonation; log K2) [7, 13]: 9.42
- log K LH3 (ligand protonation; log K3) [7, 13]: 8.65
- log K LH (ligand protonation; log K1) [7, 13]: 9.89
- log β LH (ligand protonation) [7, 13]: 9.89

SMILES: O=C(O)CN(CCN(CC(=O)O)CC(=O)O)CCN(CC(=O)O)CC(=O)O [DTPA]
- pZr [3]: 32.3[25],[59]

SMILES: CC(=O)N(O)CCCCCNC(=O)CCC(=O)N(O)CCCCCNC(=O)CCC(=O)N(O)CCCCCNC(=O)CCC(=O)N(O)CCCCCN [DFO*]
- log β [Zr(L)] predicted from computational calculations [1]: 51.56

SMILES: O=C(O)CN1CCN(CC(=O)O)CCN(CC(=O)O)CC1 [NOTA]
- pGa [2]: 27.4[54]

SMILES: Oc1cccc2ccc(CNCCNCc3ccc4cccc(O)c4n3)nc12 [H2hox]
- pGa [2]: 28.4[55]
